# Patent publication US20240025856A1, “1,2,3,4-TETRAHYDROQUINOLINE DERIVATIVES AS INHIBITORS OF THE YAP/TAZ-TEAD ACTIVATION FOR TREATING CANCER” (KATHOLIEKE UNIVERSITEIT LEUVEN, priority 2020, published 2024)
# Test system: YAP/TAZ-TEAD transcription
# Assay: Reporter gene assay for measuring the inhibition of YAP/TAZ-TEAD transcription (TEAD-responsive element luciferase reporter in Hek293T cells)
# Assay type: cell-based
# Settings: Homo sapiens, HEK-293T, 24 h, Hek293T cells transiently transfected with TEAD-responsive element luciferase reporter; 24 hours incubation
# Experimental: Hek293T cells are cultured in DMEM supplemented with 10% fetal bovine serum, Sodium pyruvate, Sodium bicarbonate, L-glutamine. The cells are harvested and transiently transfected with TEAD-responsive element luciferase reporter. Transfected cells are plated in 384-wells plate containing pre-diluted compounds. After 24 hours incubation at 37° C./5% CO2, assay plates were cooled down to RT and levelled to an equal volume per well, prior to the addition of 25 uL luciferase substrate SteadyLite (Perkin Elmer)/well. The plate was shaken for 10 min at 600 rpm, centrifuged for 1 min at 500 rpm and measured with an Envision reader (PerkinElmer). The amount of relative light units produced by the TEAD reporter is used to calculated percent of inhibition. The percent of reporter inhibition was calculated in the presence of a positive control inhibitor (100% inhibition) versus a condition with the presence of the vehicle basal activity of the reporter (0% inhibition). The ability of a test compound to inhibit this activity was determined as: Percentage inhibition=[[…]((RLU determined in the presence of vehicle−RLU determined for sample with test compound present) divided by (RLU determined in the presence of vehicle−RLU determined for sample with positive control inhibitor))]*100
# The activities of example compounds tested are depicted in the table below. The activity ranges A, B and C refer to IC50 values in the reporter gene assay as follows: “A”: IC50<1 μM; “B”: 1 μM≤IC50≤20 μM and “C”: IC50>20 μM; NT=not tested.
row,IC50,SMILES
1,1000 to 20000 nM,"O=S1(=O)CCN1C1Cc2ccccc2N(c2ccc(C(F)(F)F)cc2)C1 (stereo not shown) [compound 050, 2-(1-(4-(trifluoromethyl)phenyl)-1,2,3,4-tetrahydroquinolin-3-yl)-1,2-thiazetidine-1,1-dioxide]"
2,1000 to 20000 nM,"CNS(=O)(=O)CCNC1Cc2ccccc2N(c2ccc(C(F)(F)F)cc2)C1 (stereo not shown) [compound 051, N-methyl-2-((1-(4-(trifluoromethyl)phenyl)-1,2,3,4-tetrahydroquinolin-3-yl)amino)ethane-1-sulfonamide]"
3,1000 to 20000 nM,"N#CCCNC1Cc2ccccc2N(c2ccc(C(F)(F)F)cc2)C1 (stereo not shown) [compound 053, 3-((1-(4-(trifluoromethyl)phenyl)-1,2,3,4-tetrahydroquinolin-3-yl)amino)propanenitrile]"
4,1000 to 20000 nM,"N#CCNC1Cc2ccccc2N(c2ccc(C(F)(F)F)cc2)C1 (stereo not shown) [compound 054, 2-((1-(4-(trifluoromethyl)phenyl)-1,2,3,4-tetrahydroquinolin-3-yl)amino)acetonitrile]"
5,< 1000 nM,"C=CC(=O)NC1Cc2c(Br)cccc2N(c2ccc(C(F)(F)F)cc2)C1 (stereo not shown) [compound 058, N-(5-bromo-1-(4-(trifluoromethyl)phenyl)-1,2,3,4-tetrahydroquinolin-3-yl)acrylamide]"
6,1000 to 20000 nM,"CCC(=O)NC1Cc2c(Cc3cccnc3)cccc2N(c2ccc(C(F)(F)F)cc2)C1 (stereo not shown) [compound 061, N-(5-(pyridin-3-ylmethyl)-1-(4-(trifluoromethyl)phenyl)-1,2,3,4-tetrahydroquinolin-3-yl)propionamide]"
7,< 1000 nM,"C=CC(=O)NC1Cc2c(Cc3cccc(F)c3)cccc2N(c2ccc(C(F)(F)F)cc2)C1 (stereo not shown) [compound 063, N-(5-(3-fluorobenzyl)-1-(4-(trifluoromethyl)phenyl)-1,2,3,4-tetrahydroquinolin-3-yl)acrylamide]"
8,< 1000 nM,"C=CC(=O)NC1Cc2cc(C)ccc2N(c2ccc(C(F)(F)F)cc2)C1 (stereo not shown) [compound 065, N-(6-methyl-1-(4-(trifluoromethyl)phenyl)-1,2,3,4-tetrahydroquinolin-3-yl)acrylamide]"
9,< 1000 nM,"C=CC(=O)NC1Cc2c(Cc3ccccc3)cccc2N(c2ccc(C(F)(F)F)cc2)C1 (stereo not shown) [compound 066, N-(5-benzyl-1-(4-(trifluoromethyl)phenyl)-1,2,3,4-tetrahydroquinolin-3-yl)acrylamide]"
10,1000 to 20000 nM,"CCC(=O)NC1Cc2c(Cc3ccccc3)cccc2N(c2ccc(C(F)(F)F)cc2)C1 (stereo not shown) [compound 067, N-(5-benzyl-1-(4-(trifluoromethyl)phenyl)-1,2,3,4-tetrahydroquinolin-3-yl)propionamide]"
11,< 1000 nM,"C=CC(=O)NC1Cc2c(CN3CCOCC3)cccc2N(c2ccc(C(F)(F)F)cc2)C1 (stereo not shown) [compound 068, N-(5-(morpholinomethyl)-1-(4-(trifluoromethyl)phenyl)-1,2,3,4-tetrahydroquinolin-3-yl)acrylamide]"
12,< 1000 nM,"C=CC(=O)NC1Cc2c(NC(C)=O)cccc2N(c2ccc(C(F)(F)F)cc2)C1 (stereo not shown) [compound 076, N-(5-acetamido-1-(4-(trifluoromethyl)phenyl)-1,2,3,4-tetrahydroquinolin-3-yl)acrylamide]"
13,< 1000 nM,"C=CC(=O)NC1Cc2c(C(=O)O)cccc2N(c2ccc(C(F)(F)F)cc2)C1 (stereo not shown) [compound 079, 3-acrylamido-1-(4-(trifluoromethyl)phenyl)-1,2,3,4-tetrahydroquinoline-5-carboxylic acid]"
14,1000 to 20000 nM,"C=CC(=O)NC1Cc2cnccc2N(c2ccc(C(F)(F)F)cc2)C1 (stereo not shown) [compound 082, N-(1-(4-(trifluoromethyl)phenyl)-1,2,3,4-tetrahydro-1,6-naphthyridin-3-yl)acrylamide]"
15,< 1000 nM,"C=CC(=O)NCC1Cc2ccccc2N(c2ccc(C(C)C)cc2)C1 (stereo not shown) [compound 087, N-((1-(4-isopropylphenyl)-1,2,3,4-tetrahydroquinolin-3-yl)methyl)acrylamide]"
16,> 20000 nM,"C=CC(=O)NCC1Cc2ccccc2N(c2cccc(-c3ccccc3)c2)C1 (stereo not shown) [compound 093, N-((1-([1,1′-biphenyl]-3-yl)-1,2,3,4-tetrahydroquinolin-3-yl)methyl)acrylamide]"
17,< 1000 nM,"C=CC(=O)NCC1Cc2ccccc2N(c2ccc(C(F)(F)F)nc2)C1 (stereo not shown) [compound 094, N-((1-(6-(trifluoromethyl)pyridin-3-yl)-1,2,3,4-tetrahydroquinolin-3-yl)methyl)acrylamide]"
18,< 1000 nM,C=CC(=O)NCC1Cc2ccccc2N(c2ccc(C(F)(F)F)cn2)C1 (stereo not shown) [compound 095]
19,< 1000 nM,"C=CC(=O)NCC1Cc2ccccc2N(c2ccc(F)cc2)C1 (stereo not shown) [compound 097, N-((1-(4-fluorophenyl)-1,2,3,4-tetrahydroquinolin-3-yl)methyl)acrylamide]"

# Second part, the compound before the results:
row,SMILES,IC50
1,"CS(=O)(=O)CCNC1Cc2ccccc2N(c2ccc(C(F)(F)F)cc2)C1 (stereo not shown) [compound 049, N-(2-(methylsulfonyl)ethyl)-1-(4-(trifluoromethyl)phenyl)-1,2,3,4-tetrahydroquinolin-3-amine]",1000 to 20000 nM
2,"N#CCC(=O)NC1Cc2ccccc2N(c2ccc(C(F)(F)F)cc2)C1 (stereo not shown) [compound 052, 2-cyano-N-(1-(4-(trifluoromethyl)phenyl)-1,2,3,4-tetrahydroquinolin-3-yl)acetamide]",1000 to 20000 nM
3,"CC(C)(C)OC(=O)NC1Cc2c(Br)cccc2N(c2ccc(C(F)(F)F)cc2)C1 (stereo not shown) [compound 055, tert-butyl (5-bromo-1-(4-(trifluoromethyl)phenyl)-1,2,3,4-tetrahydroquinolin-3-yl)carbamate]",> 20000 nM
4,"C=CC(=O)NC1Cc2c(Cc3cccc(C#N)c3)cccc2N(c2ccc(C(F)(F)F)cc2)C1 (stereo not shown) [compound 062, N-(5-(3-cyanobenzyl)-1-(4-(trifluoromethyl)phenyl)-1,2,3,4-tetrahydroquinolin-3-yl)acrylamide]",< 1000 nM
5,"C=CC(=O)NC1Cc2c(Nc3ccccc3)cccc2N(c2ccc(C(F)(F)F)cc2)C1 (stereo not shown) [compound 069, N-(5-(phenylamino)-1-(4-(trifluoromethyl)phenyl)-1,2,3,4-tetrahydroquinolin-3-yl)acrylamide]",< 1000 nM
6,"C=CC(=O)NC1Cc2c(Nc3cccnc3)cccc2N(c2ccc(C(F)(F)F)cc2)C1 (stereo not shown) [compound 070, N-(5-(pyridin-3-ylamino)-1-(4-(trifluoromethyl)phenyl)-1,2,3,4-tetrahydroquinolin-3-yl)acrylamide]",< 1000 nM
7,"CCC(=O)NC1Cc2c(Nc3ccccc3)cccc2N(c2ccc(C(F)(F)F)cc2)C1 (stereo not shown) [compound 071, N-(5-(phenylamino)-1-(4-(trifluoromethyl)phenyl)-1,2,3,4-tetrahydroquinolin-3-yl)propionamide]",1000 to 20000 nM
8,"CCC(=O)NC1Cc2c(Nc3cccnc3)cccc2N(c2ccc(C(F)(F)F)cc2)C1 (stereo not shown) [compound 072, N-(5-(pyridin-3-ylamino)-1-(4-(trifluoromethyl)phenyl)-1,2,3,4-tetrahydroquinolin-3-yl)propionamide]",1000 to 20000 nM
9,"C=CC(=O)NC1Cc2c(NC(=O)OC(C)(C)C)cccc2N(c2ccc(C(F)(F)F)cc2)C1 (stereo not shown) [compound 074, tert-butyl (3-acrylamido-1-(4-(trifluoromethyl)phenyl)-1,2,3,4-tetrahydroquinolin-5-yl)carbamate]",< 1000 nM
10,"C=CC(=O)NCC1Cc2ccccc2N(c2ccccc2)C1 (stereo not shown) [compound 085, N-((1-phenyl-1,2,3,4-tetrahydroquinolin-3-yl)methyl)acrylamide]",< 1000 nM
11,"C=CC(=O)NCC1Cc2ccccc2N(c2cccc(C(F)(F)F)c2)C1 (stereo not shown) [compound 086, N-((1-(3-(trifluoromethyl)phenyl)-1,2,3,4-tetrahydroquinolin-3-yl)methyl)acrylamide]",< 1000 nM
12,"C=CC(=O)NCC1Cc2ccccc2N(c2cccc(C(C)C)c2)C1 (stereo not shown) [compound 088, N-((1-(3-isopropylphenyl)-1,2,3,4-tetrahydroquinolin-3-yl)methyl)acrylamide]",< 1000 nM
13,"C=CC(=O)NCC1Cc2ccccc2N(c2ccc(Cl)cc2)C1 (stereo not shown) [compound 089, N-((1-(4-chlorophenyl)-1,2,3,4-tetrahydroquinolin-3-yl)methyl)acrylamide]",< 1000 nM
14,"C=CC(=O)NCC1Cc2ccccc2N(c2cccc(OC)c2)C1 (stereo not shown) [compound 090, N-((1-(3-methoxyphenyl)-1,2,3,4-tetrahydroquinolin-3-yl)methyl)acrylamide]",< 1000 nM
15,"C=CC(=O)NCC1Cc2ccccc2N(c2ccc(OC)cc2)C1 (stereo not shown) [compound 091, N-((1-(4-methoxyphenyl)-1,2,3,4-tetrahydroquinolin-3-yl)methyl)acrylamide]",< 1000 nM
16,"C=CC(=O)NCC1Cc2ccccc2N(c2ccc(-c3ccccc3)cc2)C1 (stereo not shown) [compound 092, N-((1-([1,1′-biphenyl]-4-yl)-1,2,3,4-tetrahydroquinolin-3-yl)methyl)acrylamide]",< 1000 nM
17,"C=CC(=O)NCC1Cc2ccccc2N(c2ccnc(C(F)(F)F)c2)C1 (stereo not shown) [compound 096, N-((1-(2-(trifluoromethyl)pyridin-4-yl)-1,2,3,4-tetrahydroquinolin-3-yl)methyl)acrylamide]",< 1000 nM
18,"CCC(=O)NCC1Cc2ccccc2N(c2ccc(C(F)(F)F)cc2)C1 (stereo not shown) [compound 098, N-((1-(4-(trifluoromethyl)phenyl)-1,2,3,4-tetrahydroquinolin-3-yl)methyl)propionamide]",< 1000 nM
